Data as given in article PMC6928678, “Simplified Head-to-Tail Cyclic Polypeptides as Biomaterial-Associated Antimicrobials with Endotoxin Neutralizing and Anti-Inflammatory Capabilities” (International Journal of Molecular Sciences, 2019).
Converted amounts (≈) assume the structure as drawn. Like-named read-outs stand apart in the source and are kept apart here. Where a SMILES comes first, the peptide text is derived from it. Where no end group is shown, it is not given here. [ ]: non-standard residue; d: D form.

Experiments:
MRSA43300 = assay: microbe, parasite or virus in culture; format: cell-based, Methicillin-resistant Staphylococcus aureus
Experimental: (§1) The test strains, including Gram-negative E. coli ATCC25922, E. coli ATCC 1005, S. typhimurium C7731, P. aeruginosa ATCC 27853, S. Typhimurium 14028, Gram-positive S. aureus ATCC29213, S. aureus ATCC 25923, S. epidermidis ATCC 12228 and S. aureus 43300, were obtained from the School of Veterinary Medicine, Northeast Agricultural University (Harbin, China).
(§2) Briefly, the bacteria were incubated overnight at 37 °C with constant shaking at 220 rpm, then were transferred to new MH broth (MHB) medium until they reached the logarithmic phase of growth. The bacteria were then diluted to 10^5 (CFU)/mL in MHB. The peptides were dissolved and diluted in 0.01% acetic acid and 0.2% bovine serum albumin (BSA) at various concentrations (0.5–128 μM) in each well of sterile 96-well plates and incubated for 20 h at 37 °C. […] The test was repeated three times.

E. coli UB 1005 = assay: microbe, parasite or virus in culture; format: cell-based, Escherichia coli
Experimental: as §1, §2

E. coli 25922 = assay: microbe, parasite or virus in culture; format: cell-based, Escherichia coli
Experimental: as §1, §2

S. aureus 29213 = assay: microbe, parasite or virus in culture; format: cell-based, Staphylococcus aureus
Experimental: as §1, §2

S. aureus 25923 = assay: microbe, parasite or virus in culture; format: cell-based, Staphylococcus aureus
Experimental: as §1, §2

[1] = tested on: gram-positive strains tested; assay: organism not typed; format: cell-based
Experimental: as §2

[2] = tested on: human red blood cells (hRBCs); assay: Hemolysis assay; format: cell-based
Experimental: Figure 2 (A) Hemolytic activity of the engineered peptides against human red blood cells (hRBCs). The hRBCs were incubated with equal amounts of the respective peptides dissolved in PBS for 1 h at 37 °C. (B) Cytotoxicity of the engineered peptides against RAW264.7. […] Data shown are three independent experiments.
The hemolytic activity of the peptides is determined by measuring the amount of hemoglobin released during the lysis of human erythrocytes at different concentrations of AMPs. Briefly, fresh, healthy human red blood cells (hRBCs) were collected and then washed three times with phosphate-buffered saline (PBS) buffer (pH 7.2) and centrifuged at 1000× g for 5 min. Each 50 µL sample of hRBCs was incubated with 50 µL of the respective peptide dissolved in PBS in a well of a 96-well plate for 1 h at 37 °C. After incubation, the samples were centrifuged at 1000× g for 5 min and the supernatants (50 μL) were transferred to a new 96-well microplate. The release of hemoglobin was measured by monitoring the OD at 570 nm (Tecan, Salzburg, Austria). Negative (hRBCs without AMP treatment) and positive (hRBCs treated with 0.1% TritonX-100) controls were used. The concentration of peptide that caused 5% hemolysis was considered the minimal hemolysis concentration (MHC). The test was repeated three times. The percent hemolysis was calculated using the following formula:(2) Percent hemolysis=A−A0/At−A0× 100% A0 and At represent 0% and 100% hemolysis as measured in 10 mM PBS and 0.2% Triton X-100, respectively.

[3] = tested on: gram-negative strains tested; assay: Geometric mean of MICs, gram-negative strains; format: cell-based; details: 5 gram-negative strains; >128 apparently counted as 256; read-out: nGM (–), geometric mean of the MICs against gram-negative strains
Experimental: as §2

[4] = tested on: all the 9 bacteria tested; assay: Geometric mean of MICs, all 9 bacteria; format: cell-based; details: for tGM, geometric mean of the MICs against all the 9 bacteria: all 9 bacteria tested; for GM MIC (range of Gram-negative and Gram-positive geometric means): Table 2
Experimental: as §2

S. typhimurium 7731 = assay: microbe, parasite or virus in culture; format: cell-based
Experimental: as §1, §2

S. typhimurium 14028 = assay: microbe, parasite or virus in culture; format: cell-based
Experimental: as §1, §2

S. epidermidis 12228 = assay: microbe, parasite or virus in culture; format: cell-based
Experimental: as §1, §2

P. aeruginosa 27853 = assay: microbe, parasite or virus in culture; format: cell-based
Experimental: as §1, §2

[5] = tested on: Gram-positive and Gram-negative bacteria; assay: Antimicrobial assay (MIC), statement over all strains; format: cell-based; details: all strains tested
Experimental: as §2

Row | Molecule | MIC (MRSA43300; 20 h) | MIC (E. coli UB 1005; UB 1005, 20 h) | MIC (E. coli 25922; 25922, 20 h) | MIC (S. aureus 29213; 29213, 20 h) | MIC (S. aureus 25923; 25923, 20 h) | pGM (+), geometric mean of the MICs against gram-positive strains ([1]; 20 h) | MHC5, minimum hemolytic concentration that induced ≥5% hemolysis ([2]; red cells of human, 1 h) | MIC [3] | tGM, geometric mean of the MICs against all the 9 bacteria [4] | MIC (S. typhimurium 7731; 7731, 20 h) | MIC (S. typhimurium 14028; 14028, 20 h) | MIC (S. epidermidis 12228; 12228, 20 h) | MIC (P. aeruginosa 27853; 27853, 20 h, read-out: MIC) | also measured
1 | IRIRPIRIRP [IR2] | >128 µM | >128 µM | >128 µM | >128 µM | >128 µM | 256 µM | >128 µM | 256 µM | 256 µM | >128 µM | >128 µM | >128 µM | >128 µM | –
2 | CC[C@H](C)[C@H](N)C(=O)N[C@@H](CCCNC(=N)N)C(=O)N[C@H](C(=O)N[C@@H](CCCNC(=N)N)C(=O)N[C@H](C(=O)N[C@@H](CCCNC(=N)N)C(=O)N1CCC[C@@H]1C(=O)N[C@H](C(=O)N[C@@H](CCCNC(=N)N)C(=O)N[C@H](C(=O)N[C@@H](CCCNC(=N)N)C(=O)N[C@H](C(=O)N[C@@H](CCCNC(=N)N)C(=O)N1CCC[C@@H]1C(=O)O)[C@@H](C)CC)[C@@H](C)CC)[C@@H](C)CC)[C@@H](C)CC)[C@@H](C)CC [DIR3] (H-IRIRIR[dP]IRIRIR[dP]-OH) | 64 µM (≈ 117 µg/mL) | 4 µM (≈ 7.31 µg/mL) | 4 µM (≈ 7.31 µg/mL) | 8 µM (≈ 14.6 µg/mL) | 64 µM (≈ 117 µg/mL) | 45.3 µM | >128 µM | – | – | 4 µM (≈ 7.31 µg/mL) | 16 µM (≈ 29.3 µg/mL) | 128 µM (≈ 234 µg/mL) | 8 µM (≈ 14.6 µg/mL) | –
3 | CC[C@H](C)[C@H](N)C(=O)N[C@@H](CCCNC(=N)N)C(=O)N1CCC[C@@H]1C(=O)N[C@H](C(=O)N[C@@H](CCCNC(=N)N)C(=O)N1CCC[C@@H]1C(=O)O)[C@@H](C)CC [DIR1] (H-IR[dP]IR[dP]-OH) | >128 µM | >128 µM | >128 µM | >128 µM | >128 µM | 256 µM | >128 µM | 256 µM (≈ 192 µg/mL) | 256 µM | >128 µM | >128 µM | >128 µM | >128 µM | MIC in the presence of Gram-positive and Gram-negative bacteria [5]: greater than 128 μM
4 | Colistin Sulfate [CS, reference compound] | – | – | – | – | – | – | – | 0.8 µM | 5.9 µM | – | – | – | – | MIC (MRSA43300; MRSA43300, MHB, 10^5 CFU/mL, 20 h 37 °C, repeated three times): 64 µM; MIC (E. coli UB 1005; E. coli UB 1005, MHB, 10^5 CFU/mL, 20 h 37 °C, repeated three times): 0.5 µM; MIC (E. coli 25922; E. coli 25922, MHB, 10^5 CFU/mL, 0.5–128 μM peptide, 20 h 37 °C, OD 492 nm, repeated three times): 0.5 µM; MIC (S. aureus 29213; S. aureus 29213, MHB, 10^5 CFU/mL, 20 h 37 °C, repeated three times): 64 µM; MIC (S. aureus 25923; S. aureus 25923, MHB, 10^5 CFU/mL, 20 h 37 °C, repeated three times): 64 µM; pGM (+), geometric mean of the MICs against gram-positive strains ([1]; 4 gram-positive strains, >128 apparently counted as 256): 76.1 µM; GM MIC (range of Gram-negative and Gram-positive geometric means) [4]: 0.8 to 76.1 µM; MIC (S. typhimurium 7731; S. typhimurium 7731, MHB, 10^5 CFU/mL, 20 h 37 °C, repeated three times): 0.5 µM; MIC (S. typhimurium 14028; S. typhimurium 14028, MHB, 10^5 CFU/mL, 20 h 37 °C, repeated three times): 4 µM; MIC (S. epidermidis 12228; S. epidermidis 12228, MHB, 10^5 CFU/mL, 20 h 37 °C, repeated three times): 128 µM; MIC (P. aeruginosa 27853; P. aeruginosa 27853, MHB, 10^5 CFU/mL, 20 h 37 °C, repeated three times, read-out: MIC): 0.5 µM
5 | O=C(N[C@H](CO)[C@H](O)c1ccc([N+](=O)[O-])cc1)C(Cl)Cl [CH, Chloramphenicol, reference compound] | – | – | – | – | – | – | – | 18.4 µM (≈ 5.95 µg/mL) | – | – | – | – | – | MIC (MRSA43300; Staphylococcus aureus, MRSA43300, MHB, 10^5 CFU/mL, 20 h 37 °C, repeated three times): 32 µM (≈ 10.3 µg/mL); MIC (E. coli UB 1005; Escherichia coli, UB1005, E. coli UB 1005, MHB, 10^5 CFU/mL, 20 h 37 °C, repeated three times): 4 µM (≈ 1.29 µg/mL); MIC (E. coli 25922; Escherichia coli, E. coli 25922, MHB, 10^5 CFU/mL, 0.5–128 μM peptide, 20 h 37 °C, OD 492 nm, repeated three times): 16 µM (≈ 5.17 µg/mL); MIC (S. aureus 29213; Staphylococcus aureus, S. aureus 29213, MHB, 10^5 CFU/mL, 20 h 37 °C, repeated three times): 8 µM (≈ 2.59 µg/mL); MIC (S. aureus 25923; Staphylococcus aureus, S. aureus 25923, MHB, 10^5 CFU/mL, 20 h 37 °C, repeated three times): 32 µM (≈ 10.3 µg/mL); MIC ([1]; read-out: pGM (+), geometric mean of the MICs against gram-positive strains): 22.6 µM (≈ 7.3 µg/mL); MHC5, minimum hemolytic concentration that induced ≥5% hemolysis ([2]; human red blood cells, PBS, 1 h at 37 °C, OD 570 nm, repeated three times): >128 µM; GM MIC (range of Gram-negative and Gram-positive geometric means) [4]: 18.4 to 22.6 µM; MIC ([4]; read-out: tGM, geometric mean of the MICs against all the 9 bacteria): 20.2 µM (≈ 6.53 µg/mL); MIC (S. typhimurium 7731; Salmonella enterica, S. typhimurium 7731, MHB, 10^5 CFU/mL, 20 h 37 °C, repeated three times): 8 µM (≈ 2.59 µg/mL); MIC (S. typhimurium 14028; Salmonella enterica, S. typhimurium 14028, MHB, 10^5 CFU/mL, 20 h 37 °C, repeated three times): 16 µM (≈ 5.17 µg/mL); MIC (S. epidermidis 12228; Staphylococcus epidermidis, S. epidermidis 12228, MHB, 10^5 CFU/mL, 20 h 37 °C, repeated three times): 32 µM (≈ 10.3 µg/mL); MIC (P. aeruginosa 27853; Pseudomonas aeruginosa, 27853, 20 h): > 128 µM
6 | IRIRIRPIRIRIRP [IR3] | 64 µM | 8 µM | 16 µM | 64 µM | 64 µM | 90.5 µM | >128 µM | 12.1 µM | – | 16 µM | 16 µM | >128 µM | 8 µM | –
7 | IRPIRP [IR1] | >128 µM | >128 µM | >128 µM | >128 µM | >128 µM | 256 µM | >128 µM | 256 µM | 256 µM | >128 µM | >128 µM | >128 µM | >128 µM | MIC in the presence of Gram-positive and Gram-negative bacteria [5]: greater than 128 μM
8 | CC[C@H](C)[C@H](N)C(=O)N[C@@H](CCCNC(=N)N)C(=O)N[C@H](C(=O)N[C@@H](CCCNC(=N)N)C(=O)N1CCC[C@@H]1C(=O)N[C@H](C(=O)N[C@@H](CCCNC(=N)N)C(=O)N[C@H](C(=O)N[C@@H](CCCNC(=N)N)C(=O)N1CCC[C@@H]1C(=O)O)[C@@H](C)CC)[C@@H](C)CC)[C@@H](C)CC [DIR2] (H-IRIR[dP]IRIR[dP]-OH) | >128 µM | 128 µM (≈ 165 µg/mL) | 128 µM (≈ 165 µg/mL) | >128 µM | >128 µM | 256 µM | >128 µM | 194.0 µM (≈ 250 µg/mL) | 219.5 µM | >128 µM | >128 µM | >128 µM | >128 µM | –
